Measured values taken from patent US4396613A, “23-Ester derivatives of DMT and method of using same” (Eli Lilly and Company, priority 1981, dated 1983).
Converted amounts (≈) assume the structure as drawn.

Legend:
[1] = tested on: Streptococcus pyogenes C203; experiment: experimental infection in mice (ED50); assay type: in vivo; settings: doses given 1 and 4 hours postinfection
Description: The 23-ester derivatives of DMT of this invention have shown in vivo antimicrobial activity against experimental bacterial infections caused by gram-positive bacteria. When two doses of test compound were admininstered to mice with experimental infections, the activity observed was measured as an ED50 value [effective dose in mg/kg to protect 50% of the test animals: see Warren Wick, et al., J. Bacteriol. 81, 233-235 (1961)].
^a mg/kg × 2; doses given 1 and 4 hours postinfection

[2] = tested on: Staphylococcus epidermidis EPI1; experiment: standard agar-dilution assay (MIC); assay type: cell-based; settings: unit assumed
Description: (§1) The MIC's in Table II were determined by standard agar-dilution assays. The MIC's in Table III were obtained using a conventional broth-dilution microtiter test.

[3] = tested on: Streptococcus pyogenes C203; experiment: standard agar-dilution assay (MIC); assay type: cell-based; settings: unit assumed
Description: as §1

Streptococcus Group 9960 = experiment: standard agar-dilution assay (MIC); assay type: cell-based; settings: unit assumed
Description: as §1

[4] = tested on: Streptococcus Group D X66; experiment: standard agar-dilution assay (MIC); assay type: cell-based; settings: unit assumed
Description: as §1

[5] = tested on: Haemophilus influenzae Holt; experiment: standard agar-dilution assay (MIC); assay type: cell-based; settings: ampicillin-sensitive strain, unit assumed
Description: as §1

[6] = tested on: Staphylococcus aureus X1.1; experiment: standard agar-dilution assay (MIC); assay type: cell-based; settings: unit assumed
Description: as §1

[7] = tested on: Staphylococcus aureus S13E; experiment: standard agar-dilution assay (MIC); assay type: cell-based; settings: unit assumed
Description: as §1

[8] = tested on: Haemophilus influenzae R252; experiment: standard agar-dilution assay (MIC); assay type: cell-based; settings: Haemophilus influenzae R252, ampicillin-resistant strain, unit assumed
Description: as §1

[9] = tested on: Pasteurella multocida 60A; experiment: conventional broth-dilution microtiter test (MIC); assay type: cell-based; settings: avian isolate, unit assumed
Description: as §1

Mycoplasma gallisepticum = experiment: conventional broth-dilution microtiter test (MIC); assay type: cell-based; settings: unit assumed
Description: as §1

Mycoplasma hyorhinis = experiment: conventional broth-dilution microtiter test (MIC); assay type: cell-based; settings: unit assumed
Description: as §1

Staphylococcus aureus = experiment: conventional broth-dilution microtiter test (MIC); assay type: cell-based; settings: unit assumed
Description: as §1

[10] = tested on: Pasteurella multocida 17E; experiment: conventional broth-dilution microtiter test (MIC); assay type: cell-based; settings: bovine isolate, unit assumed
Description: as §1

Mycoplasma synoviae = experiment: conventional broth-dilution microtiter test (MIC); assay type: cell-based; settings: unit assumed
Description: as §1

Streptococcus sp. 80 = experiment: conventional broth-dilution microtiter test (MIC); assay type: cell-based; settings: unit assumed
Description: as §1

[11] = tested on: Streptococcus pneumoniae Park I; assay type: cell-based; settings: agar dilution, unit assumed
Description: as §1

[12] = tested on: Staphylococcus aureus X400; experiment: standard agar-dilution assay (MIC); assay type: cell-based; settings: Staphylococcus aureus X400, methicillin-resistant strain, unit assumed
Description: as §1
^c Methicillinresistant-strain

[13] = tested on: Staphylococcus aureus V41; experiment: standard agar-dilution assay (MIC); assay type: cell-based; settings: Staphylococcus aureus V41, penicillin-resistant strain, unit assumed
Description: as §1
^b Penicillinresistant strain

[14] = tested on: Staphylococcus epidermidis EPI2; experiment: standard agar-dilution assay (MIC); assay type: cell-based; settings: unit assumed
Description: as §1

| Structure (SMILES) | ED50 ([1]; C203, oral) [mg/kg] | MIC [2] [µg/mL] | MIC [3] [µg/mL] | MIC (Streptococcus Group 9960) [µg/mL] | MIC [4] [µg/mL] | MIC [5] [µg/mL] | MIC [6] [µg/mL] | MIC [7] [µg/mL] | MIC [8] [µg/mL] | MIC [9] [µg/mL] | MIC (Mycoplasma gallisepticum) [µg/mL] | MIC (Mycoplasma hyorhinis) [µg/mL] | MIC (Staphylococcus aureus) [µg/mL] | MIC [10] [µg/mL] | MIC (Mycoplasma synoviae) [µg/mL] | MIC (Streptococcus sp. 80) [µg/mL] | MIC [11] [µg/mL] | MIC [12] [µg/mL] | MIC [13] [µg/mL] | MIC [14] [µg/mL] | also measured |
| --- | --- | --- | --- | --- | --- | --- | --- | --- | --- | --- | --- | --- | --- | --- | --- | --- | --- | --- | --- | --- | --- |
| CCC1OC(=O)CC(O)C(C)C(OC2OC(C)C(OC3CC(C)(O)C(O)C(C)O3)C(N(C)C)C2O)C(CC=O)CC(C)C(=O)C=CC(C)=CC1COC(=O)OC (stereo not shown) [Compound 25] | > 100 | 0.5 (≈ 0.625 µM) | 0.25 (≈ 0.313 µM) | 0.5 (≈ 0.625 µM) | 0.5 (≈ 0.625 µM) | 8 (≈ 10 µM) | 0.25 (≈ 0.313 µM) | 0.25 (≈ 0.313 µM) | 8 (≈ 10 µM) | 12.5 (≈ 15.6 µM) | 0.097 (≈ 0.121 µM) | 1.56 (≈ 1.95 µM) | 1.56 (≈ 1.95 µM) | 6.25 (≈ 7.81 µM) | 0.097 (≈ 0.121 µM) | 0.78 (≈ 0.975 µM) | 0.06 (≈ 0.075 µM) | 0.5 (≈ 0.625 µM) | 0.5 (≈ 0.625 µM) | – | ED50 ([1]; C203, sc, subcutaneous): 7.6 mg/kg |
| CCC1OC(=O)CC(O)C(C)C(OC2OC(C)C(OC3CC(C)(O)C(O)C(C)O3)C(N(C)C)C2OC(C)=O)C(CC=O)CC(C)C(=O)C=CC(C)=CC1COC(C)=O (stereo not shown) [Compound 1, 2',23-Di-O-Acetyl-DMT] | 212 | 2 (≈ 2.42 µM) | 1 (≈ 1.21 µM) | 1 (≈ 1.21 µM) | 2 (≈ 2.42 µM) | 16 (≈ 19.4 µM) | 1 (≈ 1.21 µM) | 2 (≈ 2.42 µM) | 16 (≈ 19.4 µM) | 12.5 (≈ 15.1 µM) | 0.39 (≈ 0.472 µM) | 3.12 (≈ 3.78 µM) | 0.78 (≈ 0.944 µM) | 6.25 (≈ 7.57 µM) | – | 0.78 (≈ 0.944 µM) | 0.25 (≈ 0.303 µM) | 2 (≈ 2.42 µM) | 1 (≈ 1.21 µM) | 2 (≈ 2.42 µM) | ED50 ([1]; C203, sc, subcutaneous): > 20 mg/kg |
| CCC1OC(=O)CC(O)C(C)C(OC2OC(C)C(OC3CC(C)(O)C(O)C(C)O3)C(N(C)C)C2OC(C)=O)C(CC=O)CC(C)C(=O)C=CC(C)=CC1COC(=O)n1ccnc1 (stereo not shown) [Compound 21] | – | 2 (≈ 2.28 µM) | 0.5 (≈ 0.569 µM) | 1 (≈ 1.14 µM) | 2 (≈ 2.28 µM) | 16 (≈ 18.2 µM) | 1 (≈ 1.14 µM) | 1 (≈ 1.14 µM) | 8 (≈ 9.11 µM) | 12.5 (≈ 14.2 µM) | 0.78 (≈ 0.888 µM) | 1.56 (≈ 1.78 µM) | 6.25 (≈ 7.12 µM) | 12.5 (≈ 14.2 µM) | 0.78 (≈ 0.888 µM) | 0.78 (≈ 0.888 µM) | 0.125 (≈ 0.142 µM) | 2 (≈ 2.28 µM) | 2 (≈ 2.28 µM) | 2 (≈ 2.28 µM) | – |
| CCC1OC(=O)CC(O)C(C)C(OC2OC(C)C(OC3CC(C)(O)C(O)C(C)O3)C(N(C)C)C2O)C(CC=O)CC(C)C(=O)C=CC(C)=CC1COC(=O)NCCCCCCCCN (stereo not shown) [Compound 27] | – | 2 (≈ 2.19 µM) | 1 (≈ 1.1 µM) | 4 (≈ 4.39 µM) | 4 (≈ 4.39 µM) | 32 (≈ 35.1 µM) | 2 (≈ 2.19 µM) | 4 (≈ 4.39 µM) | 32 (≈ 35.1 µM) | 50 (≈ 54.8 µM) | 0.78 (≈ 0.855 µM) | 3.12 (≈ 3.42 µM) | 6.25 (≈ 6.85 µM) | 25 (≈ 27.4 µM) | 3.12 (≈ 3.42 µM) | 0.78 (≈ 0.855 µM) | 0.25 (≈ 0.274 µM) | 8 (≈ 8.77 µM) | 2 (≈ 2.19 µM) | 4 (≈ 4.39 µM) | – |
| CCC(=O)OCC1C=C(C)C=CC(=O)C(C)CC(CC=O)C(OC2OC(C)C(OC3CC(C)(O)C(O)C(C)O3)C(N(C)C)C2O)C(C)C(O)CC(=O)OC1CC (stereo not shown) [Compound 4, 23-O-Propionyl-DMT] | 300 | 1 (≈ 1.25 µM) | 0.5 (≈ 0.627 µM) | 1 (≈ 1.25 µM) | 1 (≈ 1.25 µM) | 32 (≈ 40.1 µM) | 1 (≈ 1.25 µM) | 1 (≈ 1.25 µM) | 32 (≈ 40.1 µM) | 25 (≈ 31.3 µM) | 0.39 (≈ 0.489 µM) | 3.12 (≈ 3.91 µM) | 0.78 (≈ 0.977 µM) | 6.25 (≈ 7.83 µM) | – | 0.39 (≈ 0.489 µM) | – | 2 (≈ 2.51 µM) | 0.5 (≈ 0.627 µM) | 1 (≈ 1.25 µM) | ED50 ([1]; C203, sc, subcutaneous): 13 mg/kg |
| CCC(=O)OCC1C=C(C)C=CC(=O)C(C)CC(CC=O)C(OC2OC(C)C(OC3CC(C)(O)C(O)C(C)O3)C(N(C)C)C2OC(=O)CC)C(C)C(O)CC(=O)OC1CC (stereo not shown) [Compound 3, 2',23-Di-O-Propionyl-DMT] | 117 | 0.5 (≈ 0.585 µM) | 0.5 (≈ 0.585 µM) | 1 (≈ 1.17 µM) | 1 (≈ 1.17 µM) | 16 (≈ 18.7 µM) | 0.5 (≈ 0.585 µM) | 1 (≈ 1.17 µM) | 16 (≈ 18.7 µM) | 12.5 (≈ 14.6 µM) | 0.78 (≈ 0.913 µM) | 1.56 (≈ 1.83 µM) | 0.78 (≈ 0.913 µM) | 6.25 (≈ 7.32 µM) | 0.195 (≈ 0.228 µM) | 0.78 (≈ 0.913 µM) | 0.5 (≈ 0.585 µM) | 2 (≈ 2.34 µM) | 0.5 (≈ 0.585 µM) | 1 (≈ 1.17 µM) | ED50 ([1]; C203, sc, subcutaneous): > 20 mg/kg |
| CCC1OC(=O)CC(O)C(C)C(OC2OC(C)C(OC3CC(C)(O)C(O)C(C)O3)C(N(C)C)C2OC(=O)Cc2ccccc2)C(CC=O)CC(C)C(=O)C=CC(C)=CC1COC(=O)Cc1ccccc1 (stereo not shown) [Compound 17] | – | 1 (≈ 1.02 µM) | 0.5 (≈ 0.511 µM) | 1 (≈ 1.02 µM) | 1 (≈ 1.02 µM) | > 128 | 1 (≈ 1.02 µM) | 1 (≈ 1.02 µM) | > 128 | 25 (≈ 25.6 µM) | 0.78 (≈ 0.797 µM) | 6.25 (≈ 6.39 µM) | 0.78 (≈ 0.797 µM) | 6.25 (≈ 6.39 µM) | 1.56 (≈ 1.59 µM) | 0.78 (≈ 0.797 µM) | 0.125 (≈ 0.128 µM) | 2 (≈ 2.04 µM) | 1 (≈ 1.02 µM) | 1 (≈ 1.02 µM) | – |
| CCC(=O)OC1C(OC2C(CC=O)CC(C)C(=O)C=CC(C)=CC(COC(C)=O)C(CC)OC(=O)CC(O)C2C)OC(C)C(OC2CC(C)(O)C(O)C(C)O2)C1N(C)C (stereo not shown) [Compound 6, 23-O-Acetyl-2'-O-propionyl-DMT] | – | 1 (≈ 1.19 µM) | 0.5 (≈ 0.595 µM) | 1 (≈ 1.19 µM) | 1 (≈ 1.19 µM) | 16 (≈ 19 µM) | 0.5 (≈ 0.595 µM) | 1 (≈ 1.19 µM) | 16 (≈ 19 µM) | 12.5 (≈ 14.9 µM) | 0.39 (≈ 0.464 µM) | 0.78 (≈ 0.929 µM) | 0.78 (≈ 0.929 µM) | 6.25 (≈ 7.44 µM) | 0.195 (≈ 0.232 µM) | 0.39 (≈ 0.464 µM) | 0.125 (≈ 0.149 µM) | 2 (≈ 2.38 µM) | 0.5 (≈ 0.595 µM) | 1 (≈ 1.19 µM) | – |
| CCC1OC(=O)CC(O)C(C)C(OC2OC(C)C(OC3CC(C)(O)C(O)C(C)O3)C(N(C)C)C2OC(C)=O)C(CC=O)CC(C)C(=O)C=CC(C)=CC1COC(=O)OC (stereo not shown) [Compound 24] | – | 0.5 (≈ 0.594 µM) | 0.25 (≈ 0.297 µM) | 0.5 (≈ 0.594 µM) | 0.5 (≈ 0.594 µM) | 16 (≈ 19 µM) | 0.5 (≈ 0.594 µM) | 0.5 (≈ 0.594 µM) | 8 (≈ 9.5 µM) | 12.5 (≈ 14.8 µM) | 0.78 (≈ 0.926 µM) | 1.56 (≈ 1.85 µM) | 3.12 (≈ 3.71 µM) | 6.25 (≈ 7.42 µM) | 0.78 (≈ 0.926 µM) | 0.78 (≈ 0.926 µM) | 0.06 (≈ 0.0713 µM) | 0.5 (≈ 0.594 µM) | 0.5 (≈ 0.594 µM) | 0.5 (≈ 0.594 µM) | – |
